Data set [1] has as its target T1, OX1R (Homo sapiens, UniProt O43613).
T1 construct: expressed in transfected cells
T1 sequence (O43613 1-425): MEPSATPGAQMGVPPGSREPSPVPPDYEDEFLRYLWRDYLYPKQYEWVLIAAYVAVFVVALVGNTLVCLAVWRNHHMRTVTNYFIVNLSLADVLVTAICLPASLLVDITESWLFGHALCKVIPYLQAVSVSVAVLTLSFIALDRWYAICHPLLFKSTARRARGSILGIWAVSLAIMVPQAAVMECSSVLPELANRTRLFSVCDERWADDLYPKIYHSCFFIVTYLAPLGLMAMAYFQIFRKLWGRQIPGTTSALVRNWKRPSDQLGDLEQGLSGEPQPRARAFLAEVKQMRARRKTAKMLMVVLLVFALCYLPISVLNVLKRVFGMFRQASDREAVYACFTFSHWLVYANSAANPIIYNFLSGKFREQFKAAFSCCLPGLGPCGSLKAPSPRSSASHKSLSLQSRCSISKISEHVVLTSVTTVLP
The data set is described as follows: FLIPR intracellular calcium antagonism test, HEK293-OX1R cells. Format: cell-based. Conditions: Orexin A at EC70, read-out: hOXIR IC50. As to the method:
(§1) The change of intracellular calcium signal was detected by FLIPR, and the antagonism of the compounds on OX1R and OX2R receptors was evaluated by using IC50 value of the compounds as an index.
(§2) • Cell lines: Transfected HEK293-OX1R and HEK293-OX2R stable cell lines • HEK293-OX1R cell culture medium (DMEM, Invitrogen #11960-044, 10% serum Gibco #10099141, L-Glutamine 1×, Gibco #25030, sodium pyruvate 1×, Gibco #11360, Geneticin 300 μg/mL, Gibco #10131) • HEK293-OX2R cell culture medium (DMEM, Invitrogen #11960-044, 10% serum Gibco #10099141, L-Glutamine 1×, Gibco #25030, sodium pyruvate 1×, Gibco #11360, Geneticin 300 μg/mL, Gibco #10131, Blasticin 2 μg/mL, Invitrogen #R21001)
(§3) Experimental Steps and Methods: • a) Cell seeding (HEK293-OX1R and HEK293-OX2R cells) • 1) preheating the culture medium, trypsin and DPBS under water bath at 37° C.; pipetting and removing the medium of cell culture and washing same with 10 mL of DPBS; • 2) adding the preheated trypsin to a culture flask, rotating the culture flask so that the trypsin evenly covered the culture flask, and putting the culture flask in a 37° C., 5% CO2 incubator for digestion for 1-2 min; • 3) suspending the cells with 10-15 mL of medium for each T150 and centrifuging at 800 rpm for 5 min; resuspending the cells with 10 mL of medium, pipetting 1 mL of the cell suspension and counting with Vi-cell; • 4) diluting OX1R cells with medium to 5×10^5 cells/mL, and diluting OX2R cells with medium to 4×10^5 cells/mL, and adding the diluted cells to 384 plate (Greiner.781946) with a multi-channel pipette (50 μL/well, 25000 cells/well for OX1R cells, 20000 cells/well for OX2R cells); placing the cell plate in a 37° C., 5% CO2 incubator overnight. • b) Compound loading: • 1) diluting the compound to 20 mM with DMSO, 3-fold dilution, 8 gradients, duplicate wells, and adding same to a compound plate with an Echo liquid handler; then adding 20 μL of buffer to maintain the final concentration of DMSO of 0.1%. • c) FLIPR experiment: • 1) washing off the cell culture medium in the 384 plate with a vacuum pump, adding […] Direct fluorescent dye, incubating in 37° C., 5% CO2 incubator for 1 h, and balancing at room temperature for another 10 min. • 2) EC50 test: manually diluting Orexin A on ice, 3-fold dilution, 8 gradients, duplicate wells; preparing a DMSO plate and keep the DMSO concentration to be 0.5%; putting the cell plate, OrexinA plate, and DMSO plate in FLIPR respectively, and reading the fluorescence value. • 3) calculating the EC70 value based on the EC50 value of Orexin A; preparing a 5×EC70 solution, adding same to 384 compound plate with a multi-channel pipette, and storing on ice; • 4) putting the compound plate, 5×EC70 plate, cell plate, and FLIPR tip in sequence in FLIPR, running the program, and reading the fluorescence value. • d) Data analyzing: using Prism5.0 to analyze the data, and calculating the IC50 value of the compound.

Data set [2] can be described thus: Pharmacokinetic parameters in Beagle dog plasma. Format: in vivo. As to the method: 4 healthy male Beagle dogs were selected and randomly divided into two groups, with 2 dogs in each group. One group was given the test compound at 1 mg/kg by intravenous injection, and the other group was given the test compound at 5 mg/kg by intragastric administration. Plasma samples were collected at 0.033, 0.083, 0.25, 0.5, 1.0, 2.0, 4.0, 6.0, 8.0, and 24 h after administration for the intravenous injection group and intragastric administration group, respectively. Quantitative analysis of all biological samples was carried out by LC-MS/MS method, and the WinNonlin™ Version 6.3 (Pharsight, Mountain View, CA) pharmacokinetic software was used to calculate the relevant pharmacokinetic parameters by the non-compartmental model linear logarithmic trapezoidal method. AUC0-last represents area under the plasma concentration-time curve from time zero to the last detectable concentration time point; p.o. represents oral; i.v. represents intravenous injection; T1/2 represents half-life; CL represents clearance rate; Vd represents apparent volume of distribution; Cmax represents peak concentration; Tmax represents time to peak; F % represents oral bioavailability.

Data set [3] concerns the target T2, OX2R (Homo sapiens, UniProt O43614).
T2 construct: expressed in transfected cells
T2 sequence (O43614 1-444): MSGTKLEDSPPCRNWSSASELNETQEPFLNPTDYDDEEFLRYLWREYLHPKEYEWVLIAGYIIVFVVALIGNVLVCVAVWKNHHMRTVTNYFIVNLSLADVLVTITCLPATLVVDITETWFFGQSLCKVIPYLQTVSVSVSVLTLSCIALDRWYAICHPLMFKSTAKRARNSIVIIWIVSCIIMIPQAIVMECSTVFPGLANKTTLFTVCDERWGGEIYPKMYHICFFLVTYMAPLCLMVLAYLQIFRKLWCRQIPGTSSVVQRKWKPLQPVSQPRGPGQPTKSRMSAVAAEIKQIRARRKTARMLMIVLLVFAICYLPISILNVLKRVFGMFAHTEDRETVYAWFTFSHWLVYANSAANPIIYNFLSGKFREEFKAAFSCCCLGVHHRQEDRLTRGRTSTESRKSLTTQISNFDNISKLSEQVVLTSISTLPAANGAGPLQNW
Kind of data set: FLIPR intracellular calcium antagonism test, HEK293-OX2R cells. Format: cell-based. Conditions: Orexin A at EC70, read-out: hOX2R IC50. As to the method: as §1, §2, §3

As usually defined, the IC50 is the concentration needed to halve the response being measured. One may read the AUC(0-t) as the area under the concentration-time curve up to a stated or last time point. A lower AUC(0-t) goes with low exposure. In general, clearance refers to the rate of elimination divided by the concentration. The term half-life denotes how long it takes for the measured level to halve. The term Cmax denotes the maximum level reached in the sampled fluid or tissue. The Tmax is the time at which the peak concentration occurs.

Structures are written as SMILES.

With `COc1ccc(-n2nccn2)c(C(=O)N2C(c3nc4ccc(OC)cc4[nH]3)CC3CC32)c1` (stereo not shown) [Compound 8], the IC50 in data set [1] amounted to 1790 nM. Further, in data set [2] (male, plasma, iv, i.v. 1 mg/kg), the AUC(0-t) worked out at 15.3 µM·h, the clearance stood at 2.57 mL/min/kg and the half-life was 2.79 h. Moreover, the Vd in data set [2] (male, plasma, iv, i.v. 1 mg/kg, read-out: Vdss) stood at 0.41 L/kg. In addition, in data set [2] (male, plasma, po, p.o. 5 mg/kg), the AUC(0-t) came to 26.2 µM·h, the concentration peaked (Cmax) at 6.18 µM and the Tmax worked out at 1 h. The compound further came in with a F in data set [2] (p.o. 5 mg/kg vs i.v. 1 mg/kg) of 34%. In addition, the IC50 in data set [3] was 42 nM.

Source of the values: patent US12583841B2, “Tetrahydropyrrolocyclic compound and application thereof” (Breakthrough Pharmaceuticals Inc., priority 2021, dated 2026).
